Tests used:
Plasmodium falciparum [1] = experiment: Antiplasmodial activity against chloroquine-sensitive Plasmodium falciparum D10 by parasite LDH assay; assay type: functional, organism-based
Plasmodium falciparum [2] = experiment: Antiplasmodial activity against chloroquine-resistant Plasmodium falciparum Dd2 by parasite LDH assay; assay type: functional, organism-based
CHO = experiment: Cytotoxicity against CHO cells by MTT assay; assay type: cell-based; conditions: Cricetulus griseus
Plasmodium falciparum [3] = experiment: Resistance index, ratio of IC50 for chloroquine-resistant Plasmodium falciparum Dd2 to IC50 for chloroquine-sensitive Plasmodium falciparum D10; assay type: functional
[4] = Selectivity index, ratio of IC50 for CHO cells to IC50 for chloroquine-sensitive Plasmodium falciparum D10; assay type: toxicity, cell-based; conditions: hamster, read-out: Ratio IC50

SMILES | IC50 (Plasmodium falciparum [1]) [µM] | IC50 (Plasmodium falciparum [2]) [µM] | IC50 (CHO) [µM] | Ratio IC50 (Plasmodium falciparum [3]) | selectivity ratio [4]
CCN(CC)CC(CN(CC)CC)NCc1ccccc1 | 23.7 | 30.2 | > 300 | 1.3 | 
CCN(CC)CC(CN(CC)CC)NCc1ccc(Cl)cc1 | 8.41 | 19.8 | 76.4 | 2.4 | 9.1
CCN(CC)CC(CN(CC)CC)NCc1ccc(OC)cc1 | 6.66 | 13.5 | 170 | 2 | 24.2
Nc1ncnc2c1ncn2CC1CN1Cc1ccccc1 (racemic) | > 350 |  |  |  | 
Nc1ncnc2c1ncn2CC1CN1Cc1ccc(Cl)cc1 (racemic) | > 300 |  |  |  | 
COc1ccc(CN2CC2Cn2cnc3c(N)ncnc32)cc1 (racemic) | 267 |  |  |  | 
Cc1cn(CC2CN2Cc2ccc(Cl)cc2)c(=O)[nH]c1=O (racemic) | 138 |  |  |  | 
COc1ccc(CN2CC2Cn2cc(C)c(=O)[nH]c2=O)cc1 (racemic) | 172 |  |  |  | 
c1ccc(CN2CC2Cn2cncn2)cc1 (racemic) | 80.7 |  |  |  | 
Clc1ccc(CN2CC2Cn2cncn2)cc1 (racemic) | 126 |  |  |  | 
COc1ccc(CN2CC2Cn2cncn2)cc1 (racemic) | 4.18 | 23.2 | > 400 | 5.6 | 
CCN(CC)CC1CN1Cc1ccccc1 (racemic) | 15.2 | 48.3 | 402 | 3.2 | 26.3
CCN(CC)CC1CN1Cc1ccc(Cl)cc1 (racemic) | 6.49 | 23.7 | 247 | 3.7 | 38.1
CCN(CC)CC1CN1Cc1ccc(OC)cc1 (racemic) | 8.54 | 18 | 193 | 2.1 | 22.6
CCN(CC)CC(Cn1cnc2c(N)ncnc21)NCc1ccccc1 (racemic) | 214 |  |  |  | 
CCN(CC)CC(Cn1cnc2c(N)ncnc21)NCc1ccc(Cl)cc1 (racemic) | 78.2 |  |  |  | 
CCN(CC)CC(Cn1cnc2c(N)ncnc21)NCc1ccc(OC)cc1 (racemic) | 81.9 |  |  |  | 
CCN(CC)CC(Cn1cc(C)c(=O)[nH]c1=O)NCc1ccc(Cl)cc1 (racemic) | 71.7 |  |  |  | 
CCN(CC)CC(Cn1cc(C)c(=O)[nH]c1=O)NCc1ccc(OC)cc1 (racemic) | 128 |  |  |  | 
CCN(CC)CC(Cn1cncn1)NCc1ccccc1 (racemic) | 42.9 | 98.8 | > 300 | 2.3 | 
CCN(CC)CC(Cn1cncn1)NCc1ccc(Cl)cc1 (racemic) | 6.52 | 13.1 | > 300 | 2 | 
CCN(CC)CC(Cn1cncn1)NCc1ccc(OC)cc1 (racemic) | 1.98 | 80.9 | 159 | 41.1 | 
CC[C@H]1CN2CCc3cc(OC)c(OC)cc3[C@@H]2C[C@@H]1C[C@H]1NCCc2cc(OC)c(OC)cc21 [EMETINE] |  |  | 0.127 |  | 
